Data as given in article PMC10135964, “One Scaffold, Two Conformations: The Ring-Flip of the Messenger InsP8 Occurs under Cytosolic Conditions” (Biomolecules, 2023).
Where two headings read alike, the source gives them in different places. One block for each molecule: values may come before it.

Tests used:
[1] = set-up: method as in PMID 27460418, PMID 15708805, doi:10.1016/j.molstruc.2007.03.035; details: 31P NMR (22 °C); equation as printed refers to InsP8 complexes; cited from earlier work
[2] = 1H,13C BIRD-HMQC NMR quantification of axial vs. equatorial conformer; type: physicochemical; details: pH* 8.5, 5 equiv. Ca2+, 130 mM KCl, 10 mM NaCl
[3] = as above; type: physicochemical; details: 50 µM, 130 mM KCl, 10 mM NaCl, 4 °C
Procedure: Samples for HMQC-NMR studies contained 50 µM ^13C6-labeled InsPs (InsP6/5PP-InsP5/InsP8), 2 mM bis-tris-propane, 130 mM KCl, 10 mM NaCl and 0/50/250 µM MgCl2 in D2O.
BIRD-HMQC NMR spectra were recorded at 277 K and 600 MHz (^1H frequency) on a Bruker AV-III NMR spectrometer (Bruker Biospin, Rheinstetten, Germany) using cryogenically cooled 5 mm QCI-triple resonance probe equipped with one-axis self-shielded gradients. The spectrometer was operated using topspin 3.5 pl6 software. Instrument temperature was calibrated against […] according to Findeisen et al.. Acquisition parameters were SW(^13C): 60–90 ppm, NS: 128, TD(^13C): 64.
BIRD-HMQC spectra were recorded at 277 K as described above, with samples containing 200 µM InsPs, 130 mM KCl, 10 mM NaCl, 2mM BTP in D2O. pH was set to pH* 9.5 for InsP6, pH* 8.8 for 5PP-InsP5 and pH* 8.5 for InsP8 (pH = 0.929 × pH* + 0.42 [35]). NOESY-HMQC spectra of the same samples were subsequently recorded using mixing times of 80 ms for InsP6 and 5PP-InsP5 and 200 ms for InsP8. Conformational exchange on the time-scale of the experiment created cross-peaks between corresponding peaks in different conformations, which allowed us to assign each peak of the equatorial conformer to its axial counterpart.

[4] = set-up: method as in doi:10.1351/pac199163071015; details: 150 mM NaCl, 37 °C; cited from earlier work
[5] = set-up: method as in PMID 27460418, PMID 15708805, doi:10.1016/j.molstruc.2007.03.035; details: Potentiometry (37 °C); equation as printed refers to InsP8 complexes; cited from earlier work
[6] = pH* 9.5, without divalent cations

Structure (SMILES): O=P(O)(O)CP(=O)(O)O[C@H]1[C@H](OP(=O)(O)O)[C@@H](OP(=O)(O)O)[C@@H](OP(=O)(O)O)[C@@H](OP(=O)(O)O)[C@@H]1OP(=O)(O)O [5PCP-InsP5]
- log K, 2 K^+ + H5L^9− ↔ [K2(H5L)]^7− [1]: 2.79(7)
- log K, 3 K^+ + H4L^10− ↔ [K3(H4L)]^7− [1]: 3.94(4)
- log K, 4 K^+ + H2L^12− ↔ [K4(H2L)]^8− [1]: 4.61(3)
- log K, 4 K^+ + H3L^11− ↔ [K4(H3L)]^7− [1]: 4.50(5)
- log K, 5 K^+ + HL^13− ↔ [K5(HL)]^8− [1]: 6.57(3)
- log K, L^14− + 2 H^+ ↔ H2L^12− [1]: 22.42(2)
- log K, L^14− + 3 H^+ ↔ H3L^11− [1]: 32.26(2)
- log K, L^14− + 4 H^+ ↔ H4L^10− [1]: 40.94(2)
- log K, L^14− + 5 H^+ ↔ H5L^9− [1]: 47.67(2)
- log K, L^14− + 6 H^+ ↔ H6L^8− [1]: 51.93(2)
- log K, L^14− + 7 H^+ ↔ H7L^7− [1]: 55.64(2)
- log K, L^14− + H^+ ↔ HL^13− [1]: 11.48(1)
- log K, Mg^2+ + H2L^12− + 3 K^+ ↔ [MgK3(H2L)]^7− [1]: 9.75(7)
- log K, Mg^2+ + H4L^10− + 2 K^+ ↔ [MgK2(H4L)]^6− [1]: 6.96(7)
- log K, Mg^2+ + H5L^9− + K^+ ↔ [MgK(H5L)]^6− [1]: 5.26(7)
- log K, Mg^2+ + H6L^8− ↔ [Mg(H6L)]^6− [1]: 4.71(7)
- log K, Mg^2+ + HL^13− + 4 K^+ ↔ [MgK4(HL)]^7− [1]: 11.64(5)

- proportion in axial conformation [2]: About 60%
- proportion in axial conformation ([3]; pH* 8.5 (=pH 8.3) and higher, 5 equiv. Mg2+): exclusively the axial conformation
- proportion in axial conformation ([3]; pH* 8.5, without divalent cations): about 10%
- proportion in axial conformation [3, 6]: only detected in the axial conformation
Structure (SMILES): O=P(O)(O)O[C@H]1[C@@H](OP(=O)(O)O)[C@H](OP(=O)(O)O)[C@@H](OP(=O)(O)OP(=O)(O)O)[C@H](OP(=O)(O)O)[C@H]1OP(=O)(O)O [5PP-InsP5]

Structure (SMILES): Nc1ncnc2c1ncn2[C@@H]1O[C@H](COP(=O)(O)OP(=O)(O)OP(=O)(O)O)[C@@H](O)[C@H]1O [ATP]
- log(K), Mg^2+ + ATP^4− → [MgATP]^2− [4]: 4.34
- log(K), Mg^2+ + HATP^3− → [Mg(HATP)]^− [4]: 2.39

- proportion in axial conformation ([3]; pH* 9.0, 1 equiv. Mg2+): about 30%
- proportion in axial conformation ([3]; pH* 9.0, without divalent cations): traces
- proportion in axial conformation ([3]; pH* 9.5, 1 equiv. Mg2+): ~90%
- proportion in axial conformation [3, 6]: less than half
Structure (SMILES): O=P(O)(O)O[C@H]1[C@H](OP(=O)(O)O)[C@@H](OP(=O)(O)O)[C@H](OP(=O)(O)O)[C@@H](OP(=O)(O)O)[C@H]1OP(=O)(O)O [InsP6]
- log K, 3 K^+ + H4L^10− ↔ [K3(H4L)]^7− [5]: 3.36(5)
- log K, 4 K^+ + H3L^11− ↔ [K4(H3L)]^7− [5]: 5.42(5)
- log K, L^14− + 2 H^+ ↔ H2L^12− [5]: 21.3(1)
- log K, L^14− + 3 H^+ ↔ H3L^11− [5]: 31.63(6)
- log K, L^14− + 4 H^+ ↔ H4L^10− [5]: 40.42(6)
- log K, L^14− + 5 H^+ ↔ H5L^9− [5]: 47.32(6)
- log K, L^14− + 6 H^+ ↔ H6L^8− [5]: 53.04(7)
- log K, L^14− + 7 H^+ ↔ H7L^7− [5]: 56.14(9)
- log K, L^14− + H^+ ↔ HL^13− [5]: 10.8(1)
